{"source": "paper PMC9403976", "about": "“Elucidating the path to Plasmodium prolyl-tRNA synthetase inhibitors that overcome halofuginone resistance” (Nature Communications, 2022)", "key": {"[1]": {"target": "HsProRS (Homo sapiens, UniProt P07814)", "sequence (P07814 996-1512)": "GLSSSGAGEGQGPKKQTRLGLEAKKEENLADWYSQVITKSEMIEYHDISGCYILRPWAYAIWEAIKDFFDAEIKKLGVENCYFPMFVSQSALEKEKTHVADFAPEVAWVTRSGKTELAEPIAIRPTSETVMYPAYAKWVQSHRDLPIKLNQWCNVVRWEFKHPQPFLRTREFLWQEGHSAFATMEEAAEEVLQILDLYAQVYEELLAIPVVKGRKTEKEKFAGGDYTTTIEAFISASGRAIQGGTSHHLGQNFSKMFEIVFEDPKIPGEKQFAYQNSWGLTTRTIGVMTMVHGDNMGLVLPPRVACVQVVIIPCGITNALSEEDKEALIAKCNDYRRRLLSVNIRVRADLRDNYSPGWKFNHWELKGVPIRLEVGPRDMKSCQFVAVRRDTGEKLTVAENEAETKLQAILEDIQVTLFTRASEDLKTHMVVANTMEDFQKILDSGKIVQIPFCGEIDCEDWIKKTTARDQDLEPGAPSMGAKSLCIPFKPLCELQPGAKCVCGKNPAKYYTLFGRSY", "test": "TR-FRET ligand displacement assay with tracer MAT379 (CoraFluor-1-Halo and anti-His6 antibody formats)", "type": "binding", "parameters": "made in house; host or cells: E. coli SoluBL-21", "details": "for TR-FRET dose-response, normalized signal (SI Fig 11): individual replicates"}, "[2]": {"tested_on": "P. falciparum Dd2-2D4", "test": "P. falciparum asexual blood stage (ABS) growth assay, SYBR Green, 72 h, wild-type parasites", "type": "cell-based, Plasmodium falciparum"}, "[3]": {"target": "T1, PfcProRS (Plasmodium falciparum, UniProt Q8I5R7)", "T1 construct": "made in house; host or cells: E. coli SoluBL-21", "T1 sequence (Q8I5R7 249-746)": "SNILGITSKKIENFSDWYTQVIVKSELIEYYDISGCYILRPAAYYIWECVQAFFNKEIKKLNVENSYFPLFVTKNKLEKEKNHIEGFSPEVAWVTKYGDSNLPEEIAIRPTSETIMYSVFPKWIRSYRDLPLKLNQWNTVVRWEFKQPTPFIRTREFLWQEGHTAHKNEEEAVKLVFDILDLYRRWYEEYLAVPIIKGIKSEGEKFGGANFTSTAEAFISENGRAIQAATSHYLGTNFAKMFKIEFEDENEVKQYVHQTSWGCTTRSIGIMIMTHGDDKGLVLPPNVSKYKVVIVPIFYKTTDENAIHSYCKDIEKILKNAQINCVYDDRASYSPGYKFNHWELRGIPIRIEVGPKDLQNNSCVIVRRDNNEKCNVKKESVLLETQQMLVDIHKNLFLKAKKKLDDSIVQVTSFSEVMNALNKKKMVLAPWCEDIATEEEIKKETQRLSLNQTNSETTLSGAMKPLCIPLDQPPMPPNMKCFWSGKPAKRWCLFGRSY", "type": "binding", "details": "single replicates"}}, "note": "“And” between values parts separate entries of the source, which are not always exact repeats. Equal values may be shown once. Read-outs that look alike come from different tables or passages of the source.", "data": [{"smiles": "O=C(O)CCCC(=O)Nc1nccnc1C(=O)NC1Cc2ccccc2C1", "note": "[compound 22]", "values": [{"measurement": "IC50", "setting": "[1]", "result": "> 10", "unit": "µM"}, {"measurement": "HsProRS % signal at 10 μM, + 100 μM proline", "setting": "[1]; + 100 μM proline, 10 μM", "result": 79.2, "unit": "%"}, {"measurement": "normalized TR-FRET ligand displacement signal, dose-response replicates (SI Fig 6)", "setting": "[1]; Log[inhibitor] (M) -5.000", "result": "6.88E-01 and 7.76E-01 and 7.44E-01"}, {"measurement": "TR-FRET dose-response, normalized signal (SI Fig 11)", "setting": "[1]; Log[inhibitor] (M) -5.000", "result": "7.43E-01 and 6.59E-01 and 7.38E-01"}, {"measurement": "normalized TR-FRET ligand displacement signal, dose-response replicates (SI Fig 6)", "setting": "[1]; Log[inhibitor] (M) -5.301", "result": "8.82E-01 (2×) and 7.80E-01"}, {"measurement": "TR-FRET dose-response, normalized signal (SI Fig 11)", "setting": "[1]; Log[inhibitor] (M) -5.301", "result": "8.33E-01 and 8.41E-01 and 8.52E-01"}, {"measurement": "normalized TR-FRET ligand displacement signal, dose-response replicates (SI Fig 6)", "setting": "[1]; Log[inhibitor] (M) -5.601", "result": "8.80E-01 and 9.45E-01 and 8.65E-01"}, {"measurement": "TR-FRET dose-response, normalized signal (SI Fig 11)", "setting": "[1]; Log[inhibitor] (M) -5.601", "result": "9.39E-01 and 8.79E-01 and 9.13E-01"}, {"measurement": "normalized TR-FRET ligand displacement signal, dose-response replicates (SI Fig 6)", "setting": "[1]; Log[inhibitor] (M) -5.904", "result": "1.02E+00 and 1.06E+00 and 9.13E-01"}, {"measurement": "TR-FRET dose-response, normalized signal (SI Fig 11)", "setting": "[1]; Log[inhibitor] (M) -5.904", "result": "9.47E-01 and 9.57E-01 and 9.01E-01"}, {"measurement": "normalized TR-FRET ligand displacement signal, dose-response replicates (SI Fig 6)", "setting": "[1]; Log[inhibitor] (M) -6.208", "result": "1.04E+00 and 1.02E+00 and 9.07E-01"}, {"measurement": "TR-FRET dose-response, normalized signal (SI Fig 11)", "setting": "[1]; Log[inhibitor] (M) -6.208", "result": "1.02E+00 and 9.48E-01 and 9.47E-01"}, {"measurement": "normalized TR-FRET ligand displacement signal, dose-response replicates (SI Fig 6)", "setting": "[1]; Log[inhibitor] (M) -6.509", "result": "8.91E-01 and 9.55E-01 and 1.01E+00"}, {"measurement": "TR-FRET dose-response, normalized signal (SI Fig 11)", "setting": "[1]; Log[inhibitor] (M) -6.509", "result": "9.53E-01 and 9.49E-01 and 9.29E-01"}, {"measurement": "normalized TR-FRET ligand displacement signal, dose-response replicates (SI Fig 6)", "setting": "[1]; Log[inhibitor] (M) -6.796", "result": "1.03E+00 and 1.02E+00 and 9.73E-01"}, {"measurement": "TR-FRET dose-response, normalized signal (SI Fig 11)", "setting": "[1]; Log[inhibitor] (M) -6.796", "result": "9.39E-01 and 9.96E-01 and 9.21E-01"}, {"measurement": "normalized TR-FRET ligand displacement signal, dose-response replicates (SI Fig 6)", "setting": "[1]; Log[inhibitor] (M) -7.108", "result": "1.09E+00 and 9.83E-01 and 1.08E+00"}, {"measurement": "TR-FRET dose-response, normalized signal (SI Fig 11)", "setting": "[1]; Log[inhibitor] (M) -7.108", "result": "9.39E-01 and 9.94E-01 and 9.05E-01"}, {"measurement": "normalized TR-FRET ligand displacement signal, dose-response replicates (SI Fig 6)", "setting": "[1]; Log[inhibitor] (M) -7.409", "result": "9.62E-01 and 1.05E+00 and 9.54E-01"}, {"measurement": "TR-FRET dose-response, normalized signal (SI Fig 11)", "setting": "[1]; Log[inhibitor] (M) -7.409", "result": "9.56E-01 and 9.55E-01 and 9.01E-01"}, {"measurement": "normalized TR-FRET ligand displacement signal, dose-response replicates (SI Fig 6)", "setting": "[1]; Log[inhibitor] (M) -7.710", "result": "9.45E-01 and 1.01E+00 and 9.79E-01"}, {"measurement": "TR-FRET dose-response, normalized signal (SI Fig 11)", "setting": "[1]; Log[inhibitor] (M) -7.710", "result": "9.86E-01 and 9.70E-01 and 9.64E-01"}, {"measurement": "normalized TR-FRET ligand displacement signal, dose-response replicates (SI Fig 6)", "setting": "[1]; Log[inhibitor] (M) -8.000", "result": "1.07E+00 and 1.06E+00 and 9.51E-01"}, {"measurement": "TR-FRET dose-response, normalized signal (SI Fig 11)", "setting": "[1]; Log[inhibitor] (M) -8.000", "result": "9.84E-01 and 9.81E-01 and 9.67E-01"}, {"measurement": "normalized TR-FRET ligand displacement signal, dose-response replicates (SI Fig 6)", "setting": "[1]; Log[inhibitor] (M) -8.301", "result": "9.49E-01 and 8.91E-01 and 8.92E-01"}, {"measurement": "TR-FRET dose-response, normalized signal (SI Fig 11)", "setting": "[1]; Log[inhibitor] (M) -8.301", "result": "9.40E-01 and 1.01E+00 and 9.29E-01"}, {"measurement": "normalized TR-FRET ligand displacement signal, dose-response replicates (SI Fig 6)", "setting": "[1]; Log[inhibitor] (M) -8.602", "result": "9.06E-01 and 1.02E+00 and 1.07E+00"}, {"measurement": "TR-FRET dose-response, normalized signal (SI Fig 11)", "setting": "[1]; Log[inhibitor] (M) -8.602", "result": "9.70E-01 and 9.81E-01 and 9.77E-01"}, {"measurement": "normalized TR-FRET ligand displacement signal, dose-response replicates (SI Fig 6)", "setting": "[1]; Log[inhibitor] (M) -9.000", "result": "1.02E+00 and 8.38E-01 and 9.71E-01"}, {"measurement": "TR-FRET dose-response, normalized signal (SI Fig 11)", "setting": "[1]; Log[inhibitor] (M) -9.000", "result": "1.01E+00 and 9.79E-01 and 9.47E-01"}, {"measurement": "normalized TR-FRET ligand displacement signal, dose-response replicates (SI Fig 6)", "setting": "[1]; Log[inhibitor] (M) -9.301", "result": "9.40E-01 and 9.94E-01 and 9.82E-01"}, {"measurement": "TR-FRET dose-response, normalized signal (SI Fig 11)", "setting": "[1]; Log[inhibitor] (M) -9.301", "result": "9.53E-01 and 9.63E-01 and 8.99E-01"}, {"measurement": "HsProRS % signal at 10 μM", "setting": "[1]; no added proline/ATP (-), 10 μM", "result": 71.3, "unit": "%"}, {"measurement": "IC50", "setting": "[1]; read-out: HsProRS IC50 + 100 μM proline, + 100 μM proline", "result": "> 10", "unit": "µM"}, {"measurement": "dose-response value per replicate (SI Fig 2g)", "setting": "[2]; Log[inhibitor] (M) -7.408", "result": 111}, {"measurement": "EC50", "setting": "[2]; Plasmodium falciparum, DD2, SI Fig 16b, values on -log scale, read-out: ABS - Dd2-2D4 (converted)", "result": 12.3, "unit": "µM"}, {"measurement": "dose-response signal (normalized), SI Fig 8", "setting": "[3]; Log[inhibitor] (M) -5.000", "result": "9.06E-01 and 9.64E-01 and 8.26E-01"}, {"measurement": "dose-response signal (normalized), SI Fig 8", "setting": "[3]; Log[inhibitor] (M) -5.301", "result": "1.01E+00 (2×) and 9.72E-01"}, {"measurement": "dose-response signal (normalized), SI Fig 8", "setting": "[3]; Log[inhibitor] (M) -5.601", "result": "9.26E-01 and 1.02E+00 and 9.22E-01"}, {"measurement": "dose-response signal (normalized), SI Fig 8", "setting": "[3]; Log[inhibitor] (M) -5.904", "result": "9.72E-01 and 1.05E+00 and 1.09E+00"}, {"measurement": "dose-response signal (normalized), SI Fig 8", "setting": "[3]; Log[inhibitor] (M) -6.208", "result": "1.07E+00 (2×) and 9.87E-01"}, {"measurement": "dose-response signal (normalized), SI Fig 8", "setting": "[3]; Log[inhibitor] (M) -6.509", "result": "1.07E+00 and 1.14E+00 and 1.02E+00"}, {"measurement": "dose-response signal (normalized), SI Fig 8", "setting": "[3]; Log[inhibitor] (M) -6.796", "result": "9.89E-01 and 1.07E+00 and 9.33E-01"}, {"measurement": "dose-response signal (normalized), SI Fig 8", "setting": "[3]; Log[inhibitor] (M) -7.108", "result": "1.06E+00 and 1.00E+00 and 1.02E+00"}, {"measurement": "dose-response signal (normalized), SI Fig 8", "setting": "[3]; Log[inhibitor] (M) -7.409", "result": "9.62E-01 and 1.08E+00 and 9.97E-01"}, {"measurement": "dose-response signal (normalized), SI Fig 8", "setting": "[3]; Log[inhibitor] (M) -7.710", "result": "1.02E+00 and 9.90E-01 and 1.13E+00"}, {"measurement": "dose-response signal (normalized), SI Fig 8", "setting": "[3]; Log[inhibitor] (M) -8.000", "result": "1.05E+00 (2×) and 1.10E+00"}, {"measurement": "dose-response signal (normalized), SI Fig 8", "setting": "[3]; Log[inhibitor] (M) -8.301", "result": "1.05E+00 and 1.11E+00 and 1.20E+00"}, {"measurement": "dose-response signal (normalized), SI Fig 8", "setting": "[3]; Log[inhibitor] (M) -8.602", "result": "9.67E-01 and 1.09E+00 and 1.08E+00"}, {"measurement": "dose-response signal (normalized), SI Fig 8", "setting": "[3]; Log[inhibitor] (M) -9.000", "result": "9.27E-01 and 1.05E+00 and 1.07E+00"}, {"measurement": "dose-response signal (normalized), SI Fig 8", "setting": "[3]; Log[inhibitor] (M) -9.301", "result": "1.08E+00 and 1.15E+00 and 9.88E-01"}]}]}
